In patent US7511061B2, “Triazoles as farnesyl transferase inhibitors” (Janssen Pharmaceutica N.V., priority 1999, dated 2009):

Legend:
[1] = system: Respiratory Syncytial Virus; experiment: In vitro screening for activity against Respiratory Syncytial Virus (MTT assay, protection against cytopathology); type: cell-based; details: for SI (selectivity index, CC50 divided by IC50): RSV, HeLa cells; for IC50: human respiratory syncytial virus, 168 h, RSV-infected HeLa cells, seven days after infection, MTT, read-out: IC50 (antiviral activity)
Description: (§1) The percent protection against cytopathology caused by viruses (antiviral activity or IC50) achieved by tested compounds and their cytotoxicity (CC50) were both calculated from dose-response curves. The selectivity of the antiviral effect is represented by the selectivity index (SI), calculated by dividing the CC50 (cytotoxic dose for 50% of the cells) by the IC50 (antiviral activity for 50% of the cells).
(§2) Automated tetrazolium-based […] assays were used for determination of IC50 and CC50 of test compounds. Flat-bottom, 96-well plastic microtiter trays were filled with 180 μl of Eagle's Basal Medium, supplemented with 5% FCS (0% for FLU) and 20 mM Hepes buffer. Subsequently, stock solutions (7.8× final test concentration) of compounds were added in 45 μl volumes to a series of triplicate wells so as to allow simultaneous evaluation of their effects on virus- and mock-infected cells. Five five-fold dilutions were made directly in the microtiter trays using a robot system. Untreated virus controls, and HeLa cell controls were included in each test. Approximately 100 TCID50 of Respiratory Syncytial Virus was added to two of the three rows in a volume of 50 μl. The same volume of medium was added to the third row to measure the cytotoxicity of the compounds at the same concentrations as those used to measure the antiviral activity. After two hours of incubation, a suspension (4×10^5 cells/ml) of HeLa cells was added to all wells in a volume of 50 μl. The cultures were incubated at 37° C. in a 5% CO2 atmosphere. Seven days after infection the cytotoxicity and the antiviral activity was examined spectrophotometrically. To each well of the microtiter tray, 25 μl of a solution of MTT (3-(4,5-dimethylthiazol-2-yl)-2,5-diphenyltetrazolium bromide) was added. The trays were further incubated at 37° C. for 2 hours, after which the medium was removed from each cup. Solubilization of the formazan crystals was achieved by adding 100 μl 2-propanol. Complete dissolution of the formazan crystals were obtained after the trays have been placed on a plate shaker for 10 min. Finally, the absorbances were read in an eight-channel computer-controlled photometer (Multiskan MCC, Flow Laboratories) at two wavelengths (540 and 690 nm). The absorbance measured at 690 nm was automatically subtracted from the absorbance at 540 nm, so as to eliminate the effects of non-specific absorption.

[2] = system: HeLa cells; type: cell-based; details: human, 7 days
Description: as §1, §2

Structure (SMILES) | SI (selectivity index, CC50 divided by IC50) [1] | IC50 [1] [µM] | CC50 (cytotoxic dose for 50% of the cells) [2] [µM]
N#Cc1ccc(Cn2cnnc2CN(CCc2ccc(Br)cc2)Cc2ccc3cccc(O)c3n2)cc1 [compound 155] | 99 | 0.16 | 6.80
Cc1ccc(CCN(Cc2ccc3ccccc3n2)Cc2nncn2Cc2ccc(C#N)cc2)cc1 [compound 46] | 758 | 0.0881 | 7.06
Brc1ccc(CCN(Cc2ccc3ccccc3n2)Cc2nncn2Cc2ccc(Br)cc2)cc1 [compound 92] | 147 | 0.15 | 6.82
N#Cc1ccc(Cn2cnnc2CN(CCc2ccc(Cl)cc2Cl)Cc2ccc3ccccc3n2)cc1 [compound 114] | 337 | 0.118 | 6.93
Brc1ccc(CCN(Cc2ccc3ccccc3n2)Cc2nncn2Cc2ccccc2)cc1 [compound 101] | 196 | 0.128 | 6.89
Clc1ccc(Cn2cnnc2CN(CCc2ccc(Br)cc2)Cc2ccc3ccccc3n2)cc1 [compound 157] | 272 | 0.0931 | 7.03
N#Cc1cccc(Cn2cnnc2CN(CCc2ccc(Br)cc2)Cc2ccc3ccccc3n2)c1 [compound 102] | 793 | 0.0824 | 7.08
COC(=O)c1ccc(Cn2cnnc2CN(CCc2ccc(Br)cc2)Cc2ccc3ccccc3n2)cc1 [compound 90] | 1988 | 0.0259 | 7.59
Fc1ccc(Cn2cnnc2CN(CCc2ccc(Br)cc2)Cc2ccc3ccccc3n2)cc1 [compound 97] | 322 | 0.08 | 7.10
